According to patent US6525001B1, “Substituted pyrimidine and pyridine herbicides” (Mid-American Commercialization Corporation, priority 1997, dated 2003):

Experiments:
Format in all cases: in vivo
[1] = test system: common groundsel (Senecio vulgaris); test: Test E pre-/postemergence/post directed; design: key: 0 is no injury; 100 is complete control
How it was run: (§1)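 Greenhouse pot-grown plants; compound in non-phytotoxic solvent with surfactant applied preemergence to soil within one day of planting, postemergence at two to four leaf stage (three to twenty cm), or post-directed to plant base and soil. Visual injury rated 13 to 21 days after application, 0 (none) to 100 (complete control).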

[2] = test system: lambsquarters (Chenopodium album); test: Test D; design: key: 0 is no effect; details: POSTEMERGENCE
Protocol: (§2) Compounds evaluated in this test were formulated in a non-phytotoxic solvent mixture which included a surfactant and applied to plants that were in the 1- to 4-leaf stage (postemergence application). A mixture of sandy loam soil and greenhouse potting mix in a 60:40 ratio was used for the postemergence test.
(§3) Plantings of these crops and weed species were adjusted to produce plants of appropriate size for the postemergence test. All plant species were grown using normal greenhouse practices. Crop and weed species include alfalfa (Medicago sativa), annual bluegrass (Poa annua), blackgrass (Alopecurus myosuroides), black nightshade (Solanum nigra), chickweed (Stellaria media), common poppy (Papaver rhoeas), deadnettle (Lamium amplexicaule), downy brome (Bromus tectorum), field violet (Viola arvensis), galium 2 (Galium aparine), green foxtail (Setaria viridis), Italian ryegrass (Lolium multiflorum), jointed goatgrass (Aegilops cylindrica), kochia (Kochia scoparia), lambsquarters (Chenopodium album), lentil (Lens culinaris), littleseed canarygrass (Phalaris minor), pea (Pisum sativum), potato (Solanum tuberosum), rape (Brassica napus), redroot pigweed (Amaranthus retroflexus), Russian thistle (Salsola kali), scentless chamomile (Matricaria inodora), sorghum (Sorghum vulgare), spring barley (Hordeum vulgare), sugar beet (Beta vulgaris), sunflower (Helianthus annuus), ivyleaf speedwell (Veronica hederaefolia), spring wheat (Triticum aestivum), winter wheat (Triticum aestivum), wild buckwheat (Polygonum convolvulus), wild mustard (Sinapis arvensis), wild oat (Avena fatua), windgrass (Apera spica-venti) and winter barley (Hordeum vulgare).
(§4) Treated plants and untreated controls were maintained in a greenhouse for approximately 21 to 28 days, after which all treated plants were compared to untreated controls and visually evaluated. Plant response ratings, summarized in Table D, are based upon a 0 to 100 scale where 0 is no effect and 100 is complete control. A dash response (−) means no test result.

[3] = test system: black nightshade (Solanum nigra); test: Test D; design: key: 0 is no effect; 100 is complete control; details: PREEMERGENCE
[4] = test system: deadnettle (Lamium amplexicaule); test: Test D; design: key: 0 is no effect; 100 is complete control; details: POSTEMERGENCE
Protocol: as §2, §3, §4

[5] = test system: common poppy (Papaver rhoeas); test: Test D; design: key: 0 is no effect; 100 is complete control; details: POSTEMERGENCE
Protocol: as §2, §3, §4

rape (Brassica napus) = test: Test D; design: key: 0 is no effect; 100 is complete control; details: POSTEMERGENCE
Protocol: as §2, §3, §4

[6] = test system: wild mustard (Sinapis arvensis); test: Test D; design: key: 0 is no effect; 100 is complete control; details: POSTEMERGENCE
Protocol: as §2, §3, §4

[7] = test system: black nightshade (Solanum nigra); test: Test D; design: key: 0 is no effect; 100 is complete control; details: POSTEMERGENCE
Protocol: as §2, §3, §4

[8] = test system: sugar beet (Beta vulgaris); test: Test D; design: key: 0 is no effect; 100 is complete control; details: POSTEMERGENCE
Protocol: as §2, §3, §4

[9] = test system: chickweed (Stellaria media); test: Test D; design: key: 0 is no effect; 100 is complete control; details: POSTEMERGENCE
Protocol: as §2, §3, §4

[10] = test system: spring barley (Hordeum vulgare); test: Test D; details: PREEMERGENCE
[11] = test system: chickweed (Stellaria media); test: Test D; details: PREEMERGENCE
[12] = test system: scentless chamomile (Matricaria inodora); test: Test D; details: PREEMERGENCE
[13] = test system: common poppy (Papaver rhoeas); test: Test D; design: key: 0 is no effect; 100 is complete control; details: PREEMERGENCE
[14] = test system: barnyardgrass (Echinochloa crus-galli); test: Test E pre-/postemergence/post directed; details: PREEMERGENCE
How it was run: as §1

Cc1cnc(-n2cnc(C(F)(F)F)n2)nc1C(=O)c1cccc(C(F)(F)F)c1 [Compound 67]
Plant response rating, Com. groundsel ([1]; PREEMERGENCE, Rate 32 g/ha): 0

Cc1cnc(-n2ccc(C(F)(F)F)n2)nc1Cn1ccc(C(F)(F)F)n1 [Compound 52]
Plant response rating, Lambsquarters ([2]; Rate 16 g/ha): 70
Plant response rating, Lambsquarters ([2]; Rate 31 g/ha): 80
Plant response rating, Lambsquarters ([2]; Rate 62 g/ha): 80
Plant response rating, Lambsquarters ([2]; Rate 125 g/ha): 80
Plant response rating, Blk nightshade ([3]; Rate 31 g/ha): 10
Plant response rating, Blk nightshade ([3]; Rate 62 g/ha): 40
Plant response rating, Blk nightshade ([3]; Rate 125 g/ha): 90
Plant response rating, Deadnettle ([4]; Rate 16 g/ha): 45
Plant response rating, Deadnettle ([4]; Rate 31 g/ha): 100
Plant response rating, Deadnettle ([4]; Rate 62 g/ha): 100
Plant response rating, Deadnettle ([4]; Rate 125 g/ha): 98
Plant response rating, Common poppy ([5]; Rate 16 g/ha): 60
Plant response rating, Common poppy ([5]; Rate 31 g/ha): 100
Plant response rating, Common poppy ([5]; Rate 62 g/ha): 100
Plant response rating, Common poppy ([5]; Rate 125 g/ha): 100
Plant response rating, Rape (rape (Brassica napus); Rate 16 g/ha): 65
Plant response rating, Rape (rape (Brassica napus); Rate 31 g/ha): 65
Plant response rating, Rape (rape (Brassica napus); Rate 62 g/ha): 98
Plant response rating, Rape (rape (Brassica napus); Rate 125 g/ha): 85
Plant response rating, Wild mustard ([6]; Rate 16 g/ha): 60
Plant response rating, Wild mustard ([6]; Rate 31 g/ha): 70
Plant response rating, Wild mustard ([6]; Rate 62 g/ha): 98
Plant response rating, Wild mustard ([6]; Rate 125 g/ha): 100
Plant response rating, Blk nightshade ([7]; Rate 16 g/ha): 55
Plant response rating, Blk nightshade ([7]; Rate 31 g/ha): 60
Plant response rating, Blk nightshade ([7]; Rate 62 g/ha): 65
Plant response rating, Blk nightshade ([7]; Rate 125 g/ha): 65
Plant response rating, Sugar beet ([8]; Rate 16 g/ha): 100
Plant response rating, Sugar beet ([8]; Rate 31 g/ha): 100
Plant response rating, Sugar beet ([8]; Rate 62 g/ha): 100
Plant response rating, Sugar beet ([8]; Rate 125 g/ha): 100
Plant response rating, Chickweed ([9]; Rate 16 g/ha): 30
Plant response rating, Chickweed ([9]; Rate 31 g/ha): 50
Plant response rating, Chickweed ([9]; Rate 62 g/ha): 70
Plant response rating, Chickweed ([9]; Rate 125 g/ha): 80
Plant response rating, Spring Barley ([10]; Rate 31 g/ha): 50
Plant response rating, Spring Barley ([10]; Rate 62 g/ha): 60
Plant response rating, Spring Barley ([10]; Rate 125 g/ha): 80
Plant response rating, Chickweed ([11]; Rate 31 g/ha): 30
Plant response rating, Chickweed ([11]; Rate 62 g/ha): 80
Plant response rating, Chickweed ([11]; Rate 125 g/ha): 85

Cc1cnc(-c2ccc(C(F)(F)F)cc2)nc1Cc1cccc(C(F)(F)F)c1 [Example 1, 5-methyl-2-[4-(trifluoromethyl)phenyl]-4-[[3-(trifluoromethyl)phenyl]methyl]pyrimidine]
Plant response rating, Scentless chamo ([12]; Rate 31 g/ha): 30
Plant response rating, Scentless chamo ([12]; Rate 62 g/ha): 70
Plant response rating, Scentless chamo ([12]; Rate 125 g/ha): 75
Plant response rating, Scentless chamo ([12]; Rate 250 g/ha): 85
Plant response rating, Lambsquarters ([2]; Rate 16 g/ha): 0
Plant response rating, Lambsquarters ([2]; Rate 31 g/ha): 60
Plant response rating, Lambsquarters ([2]; Rate 62 g/ha): 60
Plant response rating, Lambsquarters ([2]; Rate 125 g/ha): 50
Plant response rating, Blk nightshade ([3]; Rate 31 g/ha): 55
Plant response rating, Blk nightshade ([3]; Rate 62 g/ha): 90
Plant response rating, Blk nightshade ([3]; Rate 125 g/ha): 100
Plant response rating, Blk nightshade ([3]; Rate 250 g/ha): 100
Plant response rating, Deadnettle ([4]; Rate 16 g/ha): 85
Plant response rating, Deadnettle ([4]; Rate 31 g/ha): 70
Plant response rating, Deadnettle ([4]; Rate 62 g/ha): 70
Plant response rating, Deadnettle ([4]; Rate 125 g/ha): 70
Plant response rating, Common poppy ([5]; Rate 16 g/ha): 50
Plant response rating, Common poppy ([5]; Rate 31 g/ha): 100
Plant response rating, Common poppy ([5]; Rate 62 g/ha): 100
Plant response rating, Common poppy ([5]; Rate 125 g/ha): 100
Plant response rating, Rape (rape (Brassica napus); Rate 16 g/ha): 65
Plant response rating, Rape (rape (Brassica napus); Rate 31 g/ha): 100
Plant response rating, Rape (rape (Brassica napus); Rate 62 g/ha): 100
Plant response rating, Rape (rape (Brassica napus); Rate 125 g/ha): 85
Plant response rating, Wild mustard ([6]; Rate 16 g/ha): 85
Plant response rating, Wild mustard ([6]; Rate 31 g/ha): 100
Plant response rating, Wild mustard ([6]; Rate 62 g/ha): 100
Plant response rating, Wild mustard ([6]; Rate 125 g/ha): 100
Plant response rating, Blk nightshade ([7]; Rate 16 g/ha): 60
Plant response rating, Blk nightshade ([7]; Rate 62 g/ha): 50
Plant response rating, Blk nightshade ([7]; Rate 125 g/ha): 50
Plant response rating, Sugar beet ([8]; Rate 16 g/ha): 45
Plant response rating, Sugar beet ([8]; Rate 31 g/ha): 75
Plant response rating, Sugar beet ([8]; Rate 62 g/ha): 90
Plant response rating, Sugar beet ([8]; Rate 125 g/ha): 100
Plant response rating, Chickweed ([9]; Rate 16 g/ha): 80
Plant response rating, Chickweed ([9]; Rate 62 g/ha): 80
Plant response rating, Chickweed ([9]; Rate 125 g/ha): 70
Plant response rating, Spring Barley ([10]; Rate 31 g/ha): 10
Plant response rating, Spring Barley ([10]; Rate 62 g/ha): 20
Plant response rating, Spring Barley ([10]; Rate 125 g/ha): 20
Plant response rating, Spring Barley ([10]; Rate 250 g/ha): 40
Plant response rating, Chickweed ([11]; Rate 31 g/ha): 55
Plant response rating, Chickweed ([11]; Rate 62 g/ha): 85
Plant response rating, Chickweed ([11]; Rate 125 g/ha): 85
Plant response rating, Chickweed ([11]; Rate 250 g/ha): 90
Plant response rating, Common poppy ([13]; Rate 31 g/ha): 80
Plant response rating, Common poppy ([13]; Rate 62 g/ha): 100
Plant response rating, Common poppy ([13]; Rate 125 g/ha): 100
Plant response rating, Common poppy ([13]; Rate 250 g/ha): 100
Plant response rating, Barnyardgrass ([14]; Rate 32 g/ha): 5
Plant response rating, Barnyardgrass ([14]; Rate 64 g/ha): 70
Plant response rating, Barnyardgrass ([14]; Rate 125 g/ha): 80

Cc1cnc(-c2ccc(C(F)(F)F)cc2)nc1Cc1cccc(OC(F)(F)F)c1 [Compound 15]
Plant response rating, Com. groundsel ([1]; POSTEMERGENCE, Rate 125 g/ha): 0
Plant response rating, Barnyardgrass ([14]; Rate 125 g/ha): 40
Plant response rating, Barnyardgrass ([14]; Rate 250 g/ha): 75

Cc1cnc(-n2ccc(C(F)(F)F)n2)nc1Cc1cccc(C(F)(F)F)c1 [Example 2, 5-methyl-4-[[3-(trifluoromethyl)phenyl]methyl]-2-[3-(trifluoromethyl)-1H-pyrazol-1-yl]pyrimidine]
Plant response rating, Com. groundsel ([1]; POSTEMERGENCE, Rate 32 g/ha): 0
Plant response rating, Barnyardgrass ([14]; Rate 32 g/ha): 20
Plant response rating, Barnyardgrass ([14]; Rate 64 g/ha): 95
